Measurements from PMC7933320, “Cytochalasins from Xylaria sp. CFL5, an Endophytic Fungus of Cephalotaxus fortunei” (Natural Products and Bioprospecting, 2020).

Tests used:
LAG3/FGL1 = biological target: T1, LAG3/FGL1 (Homo sapiens, UniProt P18627); experiment: LAG3/FGL1 binding assay (HTRF, Cisbio kit); details: for inhibition at 50 µM: read-out: inhibition rate against LAG3/FGL1
T1 sequence (P18627 23-450 limits assumed): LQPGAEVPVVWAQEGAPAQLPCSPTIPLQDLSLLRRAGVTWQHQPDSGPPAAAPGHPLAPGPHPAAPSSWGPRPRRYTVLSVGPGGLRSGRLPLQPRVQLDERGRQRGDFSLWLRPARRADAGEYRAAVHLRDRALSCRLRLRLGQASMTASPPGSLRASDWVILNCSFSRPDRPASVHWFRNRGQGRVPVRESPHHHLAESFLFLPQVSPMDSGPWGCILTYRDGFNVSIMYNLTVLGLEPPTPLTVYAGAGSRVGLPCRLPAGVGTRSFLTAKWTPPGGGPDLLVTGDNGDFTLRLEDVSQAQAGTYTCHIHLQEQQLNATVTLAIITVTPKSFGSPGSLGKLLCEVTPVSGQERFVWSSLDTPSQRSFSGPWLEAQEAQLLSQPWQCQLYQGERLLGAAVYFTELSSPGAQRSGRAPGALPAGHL
Experimental: (§1) Using the following fluorescence intensity (F) measurements at 665 nm, such as the signals of positive control (Fp), blank control (Fb), and experimental groups (Fe), the inhibition rate was calculated at each of the compound concentration levels. The inhibitory activity of compound against the interaction of LAG3 with MHC II was evaluated based on the formula as follow: Inhibition rate = (Fp − Fe)/(Fp − Fb) × 100%. IC50 values were calculated by linear regression of a dose-dependent inhibition rate curve.
The tested principles and methods were similar to those of LAG3/MHC II. Using LAG3/FGL1 binding assay kit from Cisbio, the inhibition activity of tested compounds on the binding between LAG3 and MHC II was evaluated. […] Moreover, the compositions of tested groups, positive control, negative control, blank control were analogical with those of LAG3/MHC II kit. The experimental operations and statistical analysis were also identical with above-mentioned LAG3/MHC II kit.

LAG3/MHC II = biological target: T2, LAG3/MHC II (Homo sapiens, UniProt P18627); experiment: LAG3/MHC II binding assay (HTRF, Cisbio kit); details: for inhibition at 50 µM: read-out: inhibition rate against LAG3/MHC II
T2 sequence (P18627 23-450 limits assumed): T1 sequence (P18627 23-450 limits assumed)
Experimental: Utilizing HTRF (Homogeneous Time-resolved Fluorescence) technology [34, 35], the inhibition activity of tested compounds interfering in the interaction between MHC II and LAG3 proteins was evaluated. The activity was measured using LAG3/MHC II binding assay kit commercially available from Cisbio. […] 2 μL tested solutions, 4 μL Tag1-LAG3 protein, and 4 μL Tag2-MHC II protein were added in sterile 96-well dishes. After incubation for 15 min in room temperature, 5 μL anti-Tag1-Tb^3+ and 5 μL anti-Tag2-XL665 (or 10 μL of pre-mixed anti-tag detection reagents) were added into each well. The concentration of DMSO in each well was kept below 0.5% and the final volume in each well was 20 μL in the moment. Then the 96-well dishes were kept incubating for 1 h to overnight at room temperature. Subsequently, remove the plate sealer and read specific emission signal at 665 nm on an HTRF compatible reader. […] The negative control consisted of 4 μL Tag2-MHC II protein, 5 μL anti-Tag1-Tb^3+ and 5 μL anti-Tag2-XL665, as well as 6 μL diluent. In blank control, 5 μL anti-Tag1-Tb^3+, 10 μL diluent, and 5 μL detection buffer were existed.
as §1

[1] = Cytotoxicity by the CCK8 assay; assay type: cell-based; details: human, AGS cells, read-out: inhibition rate, cytotoxicity against AGS cells
Experimental: With adriamycin as the positive control, compounds 1, 4–9 were assessed for cytotoxicity against AGS, U251, and MDA-MB-231 by the CCK8 assay (Tables 3 and 4).

Structure (SMILES)	IC50 (LAG3/FGL1) [µM]	inhibition at 50 µM (LAG3/FGL1) [%]	IC50 (LAG3/MHC II) [µM]	inhibition at 50 µM (LAG3/MHC II) [%]	inhibition at 5 µM [1] [%]
CC(=O)OC1C=CC(C)(O)C(=O)C(C)CC=CC2C(=O)C(C)C(C)C3C(Cc4ccccc4)NC(=O)C123 (stereo not shown) [Compound 8]	7.45	92.5	2.58	78.9	
CC(=O)OC1C=CC(C)C(=O)C(C)CC=CC2C=C(C)C(C)C3C(Cc4ccccc4)NC(=O)C213 (stereo not shown) [Compound 1, xylariasin A]	11.8	83.9	4.74	82.4	
CC(=O)OC1C=CC(C)(O)C(=O)C(C)CC=CC2C=C(CO)C(C)C3C(Cc4ccccc4)NC(=O)C213 (stereo not shown) [Compound 5, 12-hydroxyl zygosporin G]		79.1	3.18	85.3	
C=C1[C@@H](C)[C@H]2[C@H](Cc3ccccc3)NC(=O)[C@]23[C@H](OC(C)=O)/C=C/[C@@](C)(O)C(=O)[C@@H](C)C/C=C/[C@H]3[C@@H]1O [Compound 6, cytochalasin D]		2.66			94
CC(=O)OC1C=CC(C)(O)C(=O)C(C)CC=CC2C(O)C(C)=C(C)C3C(Cc4ccccc4)NC(=O)C123 (stereo not shown) [Compound 9, cytochalasin C]		58.4		77.4	64
C=C1C(C)C2C(Cc3ccccc3)NC(=O)C23C(OC(C)=O)C=CC(C)C(=O)C(C)CC=CC3C1O (stereo not shown) [Compound 7, zygosporin E]	4.39	92.7	2.37	82.7	
CC(=O)OC1C=CC(C)(O)C(=O)C(C)CC=CC2C=C(C)C(C)C3C(Cc4ccccc4)NC(=O)C213 (stereo not shown) [Compound 4, zygosporin G]		24.9		55.7	
